# Assay results: patent US20240018153A1, “BENZENESULFONAMIDE DERIVATIVES AND USES THEREOF” (2692372 ONTARIO, INC., priority 2020, published 2024)
# Legend:
# BTK [1] = target: T1, BTK (Homo sapiens (Human), UniProt Q06187); assay: Ramos RA1 cell lysis and immunoassay, phospho-BTK (Y223) inhibition; assay type: cell-based; set-up: key: X: BTK bound and autophosphoration of BTK inhibited in cells; conditions: RAMOS cells, compound concentration 1 μM
# How it was run: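 Ramos RA1 cells treated with compound or DMSO for 24 h at 37° C., lysed in RIPA, analysed by Simple Western. Total BTK normalised to β-actin, pBTK (Y223) to total-protein reagent; both expressed relative to DMSO control.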
# EGFR [2] = target: T2, EGFR (Homo sapiens (Human), UniProt P00533); assay: A549 cell lysis and immunoassay, phospho-EGFR (Y1068) inhibition; assay type: cell-based; set-up: key: X: EGFR bound and autophosphoration of EGFR inhibited in cells; conditions: A549 cells
# T2 sequence (P00533 25-1210): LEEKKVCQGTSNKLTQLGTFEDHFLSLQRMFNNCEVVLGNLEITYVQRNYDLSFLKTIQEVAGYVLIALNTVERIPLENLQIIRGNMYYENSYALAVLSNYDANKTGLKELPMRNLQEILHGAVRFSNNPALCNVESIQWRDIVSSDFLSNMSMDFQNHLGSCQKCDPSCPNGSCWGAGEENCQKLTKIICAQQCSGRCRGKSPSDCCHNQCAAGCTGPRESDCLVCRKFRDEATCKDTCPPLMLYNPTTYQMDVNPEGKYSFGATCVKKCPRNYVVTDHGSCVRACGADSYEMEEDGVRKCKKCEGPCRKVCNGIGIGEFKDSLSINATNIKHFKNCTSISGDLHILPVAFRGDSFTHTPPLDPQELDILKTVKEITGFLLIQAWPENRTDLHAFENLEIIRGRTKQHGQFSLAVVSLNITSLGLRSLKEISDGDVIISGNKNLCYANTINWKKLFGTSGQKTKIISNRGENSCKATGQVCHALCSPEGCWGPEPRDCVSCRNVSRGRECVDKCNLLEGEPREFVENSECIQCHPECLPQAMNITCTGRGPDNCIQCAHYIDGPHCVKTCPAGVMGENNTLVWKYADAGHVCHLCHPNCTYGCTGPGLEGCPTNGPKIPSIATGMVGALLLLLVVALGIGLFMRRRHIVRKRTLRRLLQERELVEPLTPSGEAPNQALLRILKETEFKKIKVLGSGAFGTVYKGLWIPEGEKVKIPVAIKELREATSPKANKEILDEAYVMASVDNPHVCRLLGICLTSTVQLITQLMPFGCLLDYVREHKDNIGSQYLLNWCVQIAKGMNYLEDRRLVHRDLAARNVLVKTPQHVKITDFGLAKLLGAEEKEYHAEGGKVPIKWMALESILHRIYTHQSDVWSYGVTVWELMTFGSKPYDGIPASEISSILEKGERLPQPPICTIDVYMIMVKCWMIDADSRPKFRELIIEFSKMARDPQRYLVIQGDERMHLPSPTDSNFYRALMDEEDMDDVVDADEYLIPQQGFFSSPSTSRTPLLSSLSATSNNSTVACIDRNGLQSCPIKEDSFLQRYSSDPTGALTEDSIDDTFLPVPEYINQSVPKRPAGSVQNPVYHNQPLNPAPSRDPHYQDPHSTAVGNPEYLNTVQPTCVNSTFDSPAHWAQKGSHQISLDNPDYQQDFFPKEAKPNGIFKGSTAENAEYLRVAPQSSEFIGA
# Experimental: (§1) A549 cells (ATCC) were cultured in Dulbecco's Modified Eagle's Medium (DMEM) (Wisent) supplemented with 10% FBS and 1% penicillin/streptomycin. Cells were seeded in 6-well plates at 530,000 cells/well and incubated at 37° C., 5% CO2 for 16 hours. Cells were starved in DMEM containing 1% FBS for 4 hours before they were treated with the indicated concentrations of compound or DMSO alone and incubated at 37° C., 5% CO2 for 24 hours. Prior to cell harvest and lysis, 50 ng/ml human epidermal growth factor (hEGF) (Sigma) was added to the cells and incubated at 37° C., 5% CO2 for 10 minutes. Conditioned media was discarded, and adherent cells were washed with PBS before they were scraped on ice. Cell suspensions were centrifugated at 2,000 RPM for 5 minutes at 4° C. and supernatants were discarded. Cell pellets were resuspended with 1× RIPA buffer (Millipore) and incubated on ice for 15 minutes. Protein lysates were extracted by centrifugating at 20,000 RPM for 20 minutes at 4° C. Proteins were separated and total EGFR protein levels were quantified by Simple Western Immunoassay (ProteinSimple) using the Protein Normalization Assay Module for Jess according to the manufacturer's protocol, using a protein concentration of 0.125 μg/μl and an antibody targeting EGFR (clone #EP38Y, Abcam) diluted to 1:400. Phosphorylated EGFR protein levels were quantified with the same assay using a protein concentration of 1 μg/μl and an antibody targeting pEGFR (Y1068) (Cell Signalling) diluted to 1:25. EGFR and phosphorylated EGFR levels were normalized to the Jess Protein Normalization Reagent loading control and subsequently to the DMSO control.
# BTK [3] = target: T1, BTK; assay: Jump dilution experiment, BTK; assay type: biochemical; conditions: 1.5-h incubation, 142 nM BTK, 10×IC50 compound, 100-fold dilution
# Experimental: (§2) Sample containing only DMSO vehicle was used as a positive (full activity) control while sample with no enzyme was used as a negative (zero activity) control. After the preincubation, the mixture was diluted 100-fold into a reaction mixture containing 1 uM biotinylated substrate and 28 uM ATP and the reaction was allowed to proceed for various time points (2, 5, 10, 15, 20, 30, 45 and 60 min), at which the reaction was terminated by adding 1 ul of 0.5 M EDTA. 62.5 nM SA-XL665 and 100-fold diluted europium labelled antibody (Eu-Ab), diluted in 1× detection buffer, was added as detection mixture. After 60 min of incubation, the fluorescence emission was measured at 620 nm and 665 nm. The ratio of Em 665 nm to Em 620 nm was proportional to the amount of substrate phosphorylated by the kinase.
# EGFR [4] = target: T2, EGFR; assay: A549 cell lysis and immunoassay, total EGFR degradation; assay type: cell-based; set-up: key: Y: EGFR bound in cells and EGFR degradation occurred; conditions: A549 cells
# Experimental: as §1
# EGFR [5] = target: T2, EGFR; assay: Jump dilution experiment, EGFR; assay type: biochemical; conditions: 1.5-h incubation, 46 nM EGFR, 10×IC50 compound, 100-fold dilution
# Experimental: as §2, with “Six compounds (used at 10 times their IC50 concentrations) were pre incubated with EGFR (at 46 nM or 100-fold the normal assay concentration) for 1.5 h at room temperature. Sample” for “Sample”, “containing 0.5” for “containing 1”, “and 1.57” for “and 28”, “15,” for “15, 20,”, “30, 40,” for “30,”, “EDTA. 31.25” for “EDTA. 62.5”
# [6] = compound concentration 10, 24 h
# T1 sequence (Q06187 whole entry): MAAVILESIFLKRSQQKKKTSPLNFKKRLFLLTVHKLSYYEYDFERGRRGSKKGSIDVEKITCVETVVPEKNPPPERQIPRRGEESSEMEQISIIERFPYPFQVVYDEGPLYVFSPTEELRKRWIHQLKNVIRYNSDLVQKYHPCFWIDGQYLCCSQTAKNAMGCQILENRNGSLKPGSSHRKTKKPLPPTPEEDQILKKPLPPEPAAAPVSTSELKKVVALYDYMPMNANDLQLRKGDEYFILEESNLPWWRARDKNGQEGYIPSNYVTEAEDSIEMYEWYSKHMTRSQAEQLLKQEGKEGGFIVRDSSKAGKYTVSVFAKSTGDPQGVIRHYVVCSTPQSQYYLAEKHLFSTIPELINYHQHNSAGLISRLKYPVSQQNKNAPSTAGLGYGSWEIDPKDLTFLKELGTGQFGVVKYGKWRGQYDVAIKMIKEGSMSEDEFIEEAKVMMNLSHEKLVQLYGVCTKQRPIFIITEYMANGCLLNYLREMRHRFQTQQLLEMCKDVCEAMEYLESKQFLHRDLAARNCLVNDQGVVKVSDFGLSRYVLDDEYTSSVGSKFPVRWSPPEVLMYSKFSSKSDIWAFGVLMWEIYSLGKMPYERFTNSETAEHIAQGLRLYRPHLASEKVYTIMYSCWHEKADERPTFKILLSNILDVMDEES
Structure (SMILES),"pBTK inhibition (RAMOS, 24 h) (BTK [1])","pEGFR inhibition (A549, 1 μM, 24 h) (EGFR [2])","pEGFR inhibition (A549, compound concentration, 24 h) (EGFR [2]; compound concentration 10 μM)","residual activity of BTK after jump dilution, relative to enzyme incubated with DMSO alone (BTK [3])","EGFR degradation (A549, 1 μM, 24 h) (EGFR [4])","EGFR degradation (A549, compound concentration, 24 h) (EGFR [4]; [6])","residual activity of EGFR after jump dilution, relative to enzyme incubated with DMSO alone (EGFR [5])","pEGFR inhibition (A549, compound concentration, 24 h) (EGFR [2]; compound concentration 5 μM)","EGFR degradation (A549, compound concentration, 24 h) (EGFR [4]; compound concentration 5, 24 h)"
"C[S@+]([O-])c1c(F)c(F)c(F)c(F)c1C(=O)N1CC(n2nc(-c3ccc(Oc4ccccc4)cc3)c3c(N)ncnc32)C1 (racemic) [Compound I-37, (3-(4-amino-3-(4-phenoxyphenyl)-1H-pyrazolo[3,4-d]pyrimidin-1-yl)azetidin-1-yl)(2,3,4,5-tetrafluoro-6-(methylsulfinyl)phenyl)methanone]",X,X,X,less than 1%,Y,Y,–,–,–
"CS(=O)(=O)c1c(F)c(F)c(F)c(F)c1C(=O)NCCn1nc(-c2ccc(Oc3ccccc3)cc2)c2c(N)ncnc21 [Compound I-38, N-(2-(4-amino-3-(4-phenoxyphenyl)-1H-pyrazolo[3,4-d]pyrimidin-1-yl)ethyl)-2,3,4,5-tetrafluoro-6-(methylsulfonyl)benzamide]",X,X,–,less than 1%,Y,Y,–,–,–
C[S+]([O-])c1c(F)c(F)c(F)c(F)c1C(=O)Nc1cc2c(Nc3ccc(F)c(Cl)c3)ncnc2cc1OC1CCOC1 (centres unmarked) [Compound I-3],X,X,X,–,–,Y,less than 20%,–,–
"CN(CCn1nc(-c2ccc(Oc3ccccc3)cc2)c2c(N)ncnc21)C(=O)c1c(F)c(F)c(F)c(F)c1S(N)(=O)=O [Compound I-33, N-(2-(4-amino-3-(4-phenoxyphenyl)-1H-pyrazolo[3,4-d]pyrimidin-1-yl)ethyl)-2,3,4,5-tetrafluoro-N-methyl-6-sulfamoylbenzamide]",X,X,X,less than 1%,Y,Y,–,–,–
"C[S+]([O-])c1c(F)c(F)c(F)c(F)c1Nc1cc2c(Nc3ccc(F)c(Cl)c3)ncnc2cc1O[C@H]1CCOC1 (stereo partly drawn) [Compound I-4, N^4-(3-chloro-4-fluorophenyl)-N^6-(2,3,4,5-tetrafluoro-6-(methylsulfinyl)phenyl)-7-(((S)-tetrahydrofuran-3-yl)oxy)quinazoline-4,6-diamine]",–,X,X,–,Y,Y,less than 20%,–,–
"Nc1ncnc2c1c(-c1ccc(Oc3ccccc3)cc1)nn2CCCNC(=O)c1c(F)c(F)c(F)c(F)c1S(N)(=O)=O [Compound I-34, N-(3-(4-amino-3-(4-phenoxyphenyl)-1H-pyrazolo[3,4-d]pyrimidin-1-yl)propyl)-2,3,4,5-tetrafluoro-6-sulfamoylbenzamide]",X,X,–,less than 1%,Y,Y,–,–,–
"CN(C)S(=O)(=O)c1c(F)c(F)c(F)c(F)c1C(=O)NCCn1nc(-c2ccc(Oc3ccccc3)cc2)c2c(N)ncnc21 [Compound I-40, N-(2-(4-amino-3-(4-phenoxyphenyl)-1H-pyrazolo[3,4-d]pyrimidin-1-yl)ethyl)-2-(N,N-dimethylsulfamoyl)-3,4,5,6-tetrafluorobenzamide]",X,X,–,less than 1%,–,–,–,X,Y
"CS(=O)(=O)c1c(F)c(F)c(F)c(F)c1Nc1cc2c(Nc3ccc(F)c(Cl)c3)ncnc2cc1O[C@H]1CCOC1 [Compound I-2, (S)—N^4-(3-chloro-4-fluorophenyl)-N^6-(2,3,4,5-tetrafluoro-6-(methylsulfonyl)phenyl)-7-((tetrahydrofuran-3-yl)oxy)quinazoline-4,6-diamine]",–,X,X,–,Y,Y,less than 20%,–,–
"CS(=O)(=O)c1c(F)c(F)c(F)c(F)c1C(=O)Nc1cc2c(Nc3ccc(F)c(Cl)c3)ncnc2cc1O[C@H]1CCOC1 [Compound I-5, (S)—N-(4-((3-chloro-4-fluorophenyl)amino)-7-((tetrahydrofuran-3-yl)oxy)quinazolin-6-yl)-2,3,4,5-tetrafluoro-6-(methylsulfonyl)benzamide]",X,X,X,–,Y,Y,–,–,–
